Patent US20060167270A1, “5-substituted 2h-pyrazone-3-carbixylic acid derivatives as antilipolytic agents for the treatment of metabolic-related disorders such as dyslipidemia” (Arena Pharmaceuticals Inc., priority 2002, published 2006)
pIC50: −log10 of the molar value.

Biological target: T1, hRUP25 (Homo sapiens, UniProt Q8TDS4)
T1 construct: expressed in transfected cells; host or cells: CHO cells, stably transfected
Assay: cAMP Whole Cell assay (Flash Plate Adenylyl Cyclase kit) in CHO cells stably transfected with hRUP25
Format: cell-based
Conditions: CHO cells stably expressing hRUP25; average of two (2) trials
From the text: A modified Flash Plate™ Adenylyl Cyclase kit (New England Nuclear, Cat. No. SMP004A) was utilized for direct identification of candidate compounds as agonists to hRUP25 (Seq. Id. Nos. 1 & 2) in accordance with the following protocol:
CHO cells stably transfected with an expression vector encoding hRUP25 and cultured under condition permissive for cell surface expression of the encoded hRUP25 receptor were harvested from flasks via non-enzymatic means. The cells were washed in PBS and resuspended in the manufacturer's Assay Buffer. Live cells were counted using a hemacytometer and Trypan blue exclusion, and the cell concentration was adjusted to 2×10^6 cells/ml. cAMP standards and Detection Buffer (comprising 2 μCi of tracer [^125I]-cAMP (100 μl) to 11 ml Detection Buffer) were prepared and maintained in accordance with the manufacturer's instructions. Candidate compounds identified as per above (if frozen, thawed at room temperature) were added to their respective wells (preferably wells of a 96-well plate) at increasing concentrations (3 μl/well; 12 μM final assay concentration). […] Plates were counted in a Wallac MicroBeta™ plate reader using “Prot. #31” (as per manufacturer instructions).
The biological in vitro activity was determined using the cAMP Whole Cell method, one representative example is shown in the table below: […]

T1 sequence (Q8TDS4 whole entry): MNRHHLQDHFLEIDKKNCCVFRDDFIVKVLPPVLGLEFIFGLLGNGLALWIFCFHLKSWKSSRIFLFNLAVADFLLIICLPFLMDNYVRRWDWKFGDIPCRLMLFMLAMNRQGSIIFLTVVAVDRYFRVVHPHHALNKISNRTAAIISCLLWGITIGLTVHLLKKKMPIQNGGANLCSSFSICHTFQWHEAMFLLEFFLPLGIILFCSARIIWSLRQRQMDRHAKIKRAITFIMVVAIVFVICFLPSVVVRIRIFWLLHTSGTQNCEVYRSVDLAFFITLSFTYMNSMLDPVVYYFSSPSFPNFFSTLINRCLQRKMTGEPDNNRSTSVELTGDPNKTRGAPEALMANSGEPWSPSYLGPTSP

CCCCc1[nH]nc(C(=O)O)c1F [Compound 8, 5-Butyl-4-fluoro-1H-pyrazole-3-carboxylic acid]
pIC50: 6.05
